In the oligonucleotide strings, read from the 5' end, every base follows the letter of its sugar. An asterisk marks phosphorothioate; unmarked linkages are phosphodiester. Other units and linkages are bracketed, terminal groups are in braces. A string of capitals states the bases alone. e = 2'-O-(2-methoxyethyl) (MOE); [5mC] = 5-methylcytosine; d = 2'-deoxy (DNA)
Tests used:
[1] = system: human apolipoprotein B mRNA; assay: Apolipoprotein B mRNA in primary human hepatocytes, real-time PCR; assay type: cell-based; settings: 24 hours (Table 37)
Procedure: In accordance with the present invention, antisense oligonucleotides targeted to human apolipoprotein B were tested in dose response studies in primary human hepatocytes. Pre-plated primary human hepatocytes were purchased from Invitro Technologies (Baltimore, Md.). Cells were cultured in high-glucose DMEM (Invitrogen Corporation, Carlsbad, Calif.) supplemented with 10% fetal bovine serum (Invitrogen Corporation, Carlsbad, Calif.), 100 units/mL and 100 μg/mL streptomycin (Invitrogen Corporation, Carlsbad, Calif.).
Human primary hepatocytes were treated with ISIS 301012 (SEQ ID NO: 247) at 10, 50, 150 or 300 nM. Untreated cells and cells treated with the scrambled control oligonucleotide ISIS 113529 ([…], SEQ ID NO: 859) served as two groups of control cells. ISIS 113529 is a chimeric oligonucleotide (“gapmer”) 20 nucleotides in length, composed of a central “gap” region consisting of ten 2′-deoxynucleotides, which is flanked on both sides (5′ and 3′ directions) by five-nucleotide “wings”. The wings are composed of 2′-methoxyethyl (2′-MOE)nucleotides. The internucleoside (backbone) linkages are phosphorothioate (P═S) throughout the oligonucleotide. All cytidines are 5-methylcytidines.
(§1) Oligonucleotides were introduced into cells through LIPOFECTIN-mediated transfection as described by other examples herein. Cells were harvested both 24 and 48 hours after treatment with oligonucleotide, and both RNA and protein were isolated. Additionally, the culture media from treated cells was collected for ELISA analysis of apolipoprotein B protein secretion.
Apolipoprotein B mRNA expression was determined by real-time PCR of RNA samples as described by other examples herein. Each result represents 6 experiments.
(§2) An additional experiment was performed to test the effects of ISIS 271009 (SEQ ID NO: 319), ISIS 281625 (SEQ ID NO: 224) and ISIS 301027 (SEQ ID NO: 262) on human apolipoprotein B mRNA in human primary hepatocytes. Cells were cultured as described herein and treated with 5, 10, 50 or 150 nM of ISIS 271009, ISIS 281625 or ISIS 301027 for a period of 24 hours. The control oligonucleotides ISIS 13650 (SEQ ID NO: 806) and ISIS 113529 (SEQ ID NO: 859) were used at 50 or 150 nM. Human apolipoprotein B mRNA expression was evaluated by real-time PCR as described by other examples herein. Apolipoprotein B protein secreted into the cultured cell media was measured in the samples treated with 50 and 150 nM of oligonucleotide, using a target protein specific ELISA kit (ALerCHEK Inc., Portland, Me.).

[2] = system: apolipoprotein B protein; assay: Apolipoprotein B protein secreted from primary human hepatocytes, ELISA; assay type: cell-based; settings: 150 nM, 24 hours, "+" = increased
Procedure: as §1
Apolipoprotein secreted from into the cultured cell media was measured in the samples treated with 50 and 150 nM of oligonucleotide, using a target protein specific ELISA kit (ALerCHEK Inc., Portland, Me.). Each result represents 3 experiments.
as §2

| Substance | % Inhibition of apolipoprotein B mRNA expression ([1]; 50 nM) [%] | % Inhibition of apolipoprotein B mRNA expression ([1]; 150 nM) [%] | % Inhibition of apolipoprotein B protein secretion [2] |
| --- | --- | --- | --- |
| CTCTTACTGTGCTGTGGACA (antisense e[5mC]*eT*e[5mC]*eT*eT*dA*d[5mC]*dT*dG*dT*dG*d[5mC]*dT*dG*dT*eG*eG*eA*e[5mC]*eA) [ISIS 113529, reference compound] | 0 | 14 | +1% |
| ISIS 13650: SEQ ID NO: 806, control oligonucleotide (antisense TCCCGCCTGTGACATGCATT; listed as DNA, chemistry not given here) [reference compound] | 38 | 26 | +18% |
